Data as given in patent publication US20210283261A1, “Compositions and Methods for Treating ALK-Mediated Cancer” (ICAHN SCHOOL OF MEDICINE AT MOUNT SINAI, priority 2017, published 2021).

Key:
NPM-ALK fusion protein = target: T1, NPM-ALK fusion protein (Homo sapiens, UniProt Q9UM73); experiment: Western blot of NPM-ALK fusion protein levels in SU-DHL-1 cells; type: cell-based; settings: SU-DHL-1 cells, 30 nM, Western blot; read-out: ALK fusion protein degradation, SU-DHL-1 (30 nM)
T1 construct: endogenous in cells; host or cells: SU-DHL-1; the other entry of the earlier key: NPM1 (P06748, Nucleophosmin)
T1 sequence (Q9UM73 with tags, fused parts or gaps): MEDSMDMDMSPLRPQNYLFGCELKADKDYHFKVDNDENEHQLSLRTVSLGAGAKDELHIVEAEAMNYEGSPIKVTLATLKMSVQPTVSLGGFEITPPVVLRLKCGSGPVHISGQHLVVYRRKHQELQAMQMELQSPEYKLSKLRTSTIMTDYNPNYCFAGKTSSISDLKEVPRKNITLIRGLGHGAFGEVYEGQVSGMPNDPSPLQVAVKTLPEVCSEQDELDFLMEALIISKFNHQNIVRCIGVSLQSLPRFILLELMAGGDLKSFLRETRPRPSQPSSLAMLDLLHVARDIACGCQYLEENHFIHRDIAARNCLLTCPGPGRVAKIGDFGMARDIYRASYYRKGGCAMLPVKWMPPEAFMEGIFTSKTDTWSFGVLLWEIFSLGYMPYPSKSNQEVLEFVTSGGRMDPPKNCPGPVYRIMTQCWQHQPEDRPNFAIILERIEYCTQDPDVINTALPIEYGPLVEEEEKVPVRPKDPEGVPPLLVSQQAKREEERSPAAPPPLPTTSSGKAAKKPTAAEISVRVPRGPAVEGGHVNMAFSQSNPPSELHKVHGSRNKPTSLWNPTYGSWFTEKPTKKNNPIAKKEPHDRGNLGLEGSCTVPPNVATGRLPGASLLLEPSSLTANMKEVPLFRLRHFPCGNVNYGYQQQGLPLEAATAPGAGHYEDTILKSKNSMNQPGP
Description: Cells were cultured in a 37° C. incubator with 5% CO2.
Cells were washed with cold PBS once and lysed in 1× Laemmli loading buffer directly. […] Membrane was blocked in 5% milk in Tris-buffered saline and Tween 20 (TBST) for 1 h at room temperature, followed by incubation with a primary antibody overnight at 4° C., and a horseradish peroxidase (HRP)-conjugated secondary antibody for 1 h at room temperature. The membrane was imaged by a ChemiDoc MP imaging system (BIO-RAD). Antibodies against GAPDH (abeam), Phospho-ALK (Tyr1507), ALK (Cell Signaling Technology), Tubulin (Santa Cruz) were purchased commercially.
SU-DHL-1 suspension cells were seeded in 12-well plates at a density of 6×10^5/mL and treated with DMSO or indicated compounds at 30 nM or 100 nM for indicated time.
SU-DHL-1 cells were seeded in 12-well plates at a density of 4×10^5/mL and treated with DMSO or indicated serial dilutions of compounds for 16 h. The NPM-ALK fusion protein levels were determined by Western blot and normalized against GPADH (right panel).

ALK fusion protein = target: T2, ALK fusion protein (Homo sapiens, UniProt Q9UM73); experiment: Western blot of ALK fusion protein levels in NCI-H3122 cells; type: cell-based; settings: NCI-H3122, NCI-H3122 cells, 500 nM, Western blot; read-out: ALK fusion protein degradation, NCI-H3122 (500 nM)
T2 construct: endogenous in cells; host or cells: NCI-H3122; the other entry of the earlier key: EML4 (Q9HC35, Echinoderm microtubule-associated protein-like 4)
T2 sequence (Q9UM73 with tags, fused parts or gaps): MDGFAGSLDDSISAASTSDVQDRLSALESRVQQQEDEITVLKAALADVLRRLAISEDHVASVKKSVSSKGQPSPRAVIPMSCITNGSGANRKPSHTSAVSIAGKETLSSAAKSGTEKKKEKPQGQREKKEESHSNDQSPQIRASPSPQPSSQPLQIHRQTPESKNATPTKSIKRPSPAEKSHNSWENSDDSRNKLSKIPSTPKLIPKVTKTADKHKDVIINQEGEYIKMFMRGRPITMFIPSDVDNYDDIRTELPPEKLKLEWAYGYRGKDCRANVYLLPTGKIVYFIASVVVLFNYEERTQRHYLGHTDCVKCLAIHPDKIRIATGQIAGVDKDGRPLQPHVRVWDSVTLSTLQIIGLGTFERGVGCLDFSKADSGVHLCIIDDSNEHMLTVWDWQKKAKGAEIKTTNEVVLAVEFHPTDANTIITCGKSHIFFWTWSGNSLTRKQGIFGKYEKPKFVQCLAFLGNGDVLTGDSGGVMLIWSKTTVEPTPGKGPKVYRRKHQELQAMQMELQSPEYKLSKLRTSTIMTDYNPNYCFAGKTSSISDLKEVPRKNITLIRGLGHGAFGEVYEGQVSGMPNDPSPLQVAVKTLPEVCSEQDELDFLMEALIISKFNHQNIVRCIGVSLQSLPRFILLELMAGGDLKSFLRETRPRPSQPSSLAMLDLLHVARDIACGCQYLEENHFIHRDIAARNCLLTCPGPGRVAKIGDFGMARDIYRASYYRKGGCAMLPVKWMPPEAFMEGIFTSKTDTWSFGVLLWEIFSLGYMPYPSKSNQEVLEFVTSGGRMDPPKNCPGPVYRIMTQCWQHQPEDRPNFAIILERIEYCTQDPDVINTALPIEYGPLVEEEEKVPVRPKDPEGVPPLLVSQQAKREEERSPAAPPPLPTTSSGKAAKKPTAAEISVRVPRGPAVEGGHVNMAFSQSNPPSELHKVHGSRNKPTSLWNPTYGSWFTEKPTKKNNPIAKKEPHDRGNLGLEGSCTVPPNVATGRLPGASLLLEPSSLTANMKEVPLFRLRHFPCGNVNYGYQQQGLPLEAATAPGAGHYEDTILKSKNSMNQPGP
Description: SU-DHL-1, NCI-H3122 and NCI-H2228 cells were cultured in RPMI-1640 medium supplemented with 10% fetal bovine serum, 50 μg/mL penicillin and streptomycin. Cells were cultured in a 37° C. incubator with 5% CO2.
Cells were washed with cold PBS once and lysed in 1× Laemmli loading buffer directly. Lysates were heated at 99° C. for […], and resolved on 4-15% precast SDS-PAGE (BIO-RAD) and transferred onto PVDF membrane. Membrane was blocked in 5% milk in Tris-buffered saline and Tween 20 (TBST) for 1 h at room temperature, followed by incubation with a primary antibody overnight at 4° C., and a horseradish peroxidase (HRP)-conjugated secondary antibody for 1 h at room temperature. The membrane was imaged by a ChemiDoc MP imaging system (BIO-RAD). Antibodies against GAPDH (abeam), Phospho-ALK (Tyr1507), ALK (Cell Signaling Technology), Tubulin (Santa Cruz) were purchased commercially. […]

Compound | Dmax at 0.03 µM (NPM-ALK fusion protein) [%] | Dmax at 0.5 µM (ALK fusion protein) [%]
Cc1cc(Nc2ncc(Cl)c(Nc3ccccc3S(=O)(=O)C(C)C)n2)c(OC(C)C)cc1C1CCN(CC(=O)NCCOCCOCC(=O)N[C@H](C(=O)N2C[C@H](O)C[C@H]2C(=O)NCc2ccc(-c3scnc3C)cc2)C(C)(C)C)CC1 [CZ40-86, (2S,4R)-1-((S)-2-(tert-Butyl)-14-(4-(4-((5-chloro-4-((2-(isopropylsulfonyl)phenyl)amino)pyrimidin-2-yl)amino)-5-isopropoxy-2-methylphenyl)piperidin-1-yl)-4,13-dioxo-6,9-dioxa-3,12-diazatetradecanoyl)-4-hydroxy-N-(4-(4-methylthiazol-5-yl)benzyl)pyrrolidine-2-carboxamide] | < 20 | 
Cc1cc(Nc2ncc(Cl)c(Nc3ccccc3S(=O)(=O)C(C)C)n2)c(OC(C)C)cc1C1CCN(CC(=O)NCCCCNc2cccc3c2C(=O)N(C2CCC(=O)NC2=O)C3=O)CC1 (centres unmarked) [CZ40-80, 2-(4-(4-((5-Chloro-4-((2-(isopropylsulfonyl)phenyl)amino)pyrimidin-2-yl)amino)-5-isopropoxy-2-methylphenyl)piperidin-1-yl)-N-(4-((2-(2,6-dioxopiperidin-3-yl)-1,3-dioxoisoindolin-4-yl)amino)butyl)acetamide] | 20 to 80 | 
Cc1cc(Nc2ncc(Cl)c(Nc3ccccc3S(=O)(=O)C(C)C)n2)c(OC(C)C)cc1C1CCN(CC(=O)NCCCCCCCCNc2cccc3c2C(=O)N(C2CCC(=O)NC2=O)C3=O)CC1 (centres unmarked) [CZ40-84, 2-(4-(4-((5-Chloro-4-((2-(isopropylsulfonyl)phenyl)amino)pyrimidin-2-yl)amino)-5-isopropoxy-2-methylphenyl)piperidin-1-yl)-N-(8-((2-(2,6-dioxopiperidin-3-yl)-1,3-dioxoisoindolin-4-yl)amino)octyl)acetamide] | 20 to 80 | 
Cc1cc(Nc2ncc(Cl)c(Nc3ccccc3S(=O)(=O)C(C)C)n2)c(OC(C)C)cc1C1CCN(CC(=O)NCCCCCCCCCC(=O)N[C@H](C(=O)N2C[C@H](O)C[C@H]2C(=O)NCc2ccc(-c3scnc3C)cc2)C(C)(C)C)CC1 [CZ40-93] | < 20 | 
Cc1cc(Nc2ncc(Cl)c(Nc3ccccc3S(=O)(=O)C(C)C)n2)c(OC(C)C)cc1C1CCN(CC(=O)NCCCCCCCCC(=O)N[C@H](C(=O)N2C[C@H](O)C[C@H]2C(=O)NCc2ccc(-c3scnc3C)cc2)C(C)(C)C)CC1 [CZ40-92, (2S,4R)-1-((S)-2-(9-(2-(4-(4-((5-Chloro-4-((2-(isopropylsulfonyl)phenyl)amino)pyrimidin-2-yl)amino)-5-isopropoxy-2-methylphenyl)piperidin-1-yl)acetamido)nonanaimdo)-3,3-dimethylbutanoyl)-4-hydroxy-N-(4-(4-methylthiazol-5-yl)benzyl)pyrrolidine-2-carboxamide] | < 20 | 
Cc1cc(Nc2ncc(Cl)c(Nc3ccccc3S(=O)(=O)C(C)C)n2)c(OC(C)C)cc1C1CCN(CC(=O)NCCCCCCCNc2cccc3c2C(=O)N(C2CCC(=O)NC2=O)C3=O)CC1 (centres unmarked) [CZ40-83, 2-(4-(4-((5-Chloro-4-((2-(isopropylsulfonyl)phenyl)amino)pyrimidin-2-yl)amino)-5-isopropoxy-2-methylphenyl)piperidin-1-yl)-N-(7-((2-(2,6-dioxopiperidin-3-yl)-1,3-dioxoisoindolin-4-yl)amino)heptyl)acetamide] | > 80 | 
Cc1cc(Nc2ncc(Cl)c(Nc3ccccc3S(=O)(=O)C(C)C)n2)c(OC(C)C)cc1C1CCN(C(=O)CCOCCC(=O)N[C@H](C(=O)N2C[C@H](O)C[C@H]2C(=O)NCc2ccc(-c3scnc3C)cc2)C(C)(C)C)CC1 [CZ47-14, (2S,4R)-1-((S)-2-(3-(3-(4-(4-((5-Chloro-4-((2-(isopropylsulfonyl)phenyl)amino)pyrimidin-2-yl)amino)-5-isopropoxy-2-methylphenyl)piperidin-1-yl)-3-oxopropoxy)propanamido)-3,3-dimethylbutanoyl)-4-hydroxy-N-(4-(4-methylthiazol-5-yl)benzyl)pyrrolidine-2-carboxamide] |  | 20 to 80
Cc1cc(Nc2ncc(Cl)c(Nc3ccccc3S(=O)(=O)C(C)C)n2)c(OC(C)C)cc1C1CCN(C(=O)CCC(=O)N[C@H](C(=O)N2C[C@H](O)C[C@H]2C(=O)NCc2ccc(-c3scnc3C)cc2)C(C)(C)C)CC1 [CZ47-22, (2S,4R)-1-((S)-2-(4-(4-(4-((5-Chloro-4-((2-(isopropylsulfonyl)phenyl)amino)pyrimidin-2-yl)amino)-5-isopropoxy-2-methylphenyl)piperidin-1-yl)-4-oxobutanamido)-3,3-dimethylbutanoyl)-4-hydroxy-N-(4-(4-methylthiazol-5-yl)benzyl)pyrrolidine-2-carboxamide] |  | 20 to 80
Cc1cc(Nc2ncc(Cl)c(Nc3ccccc3S(=O)(=O)C(C)C)n2)c(OC(C)C)cc1C1CCN(C(=O)CCCCCC(=O)N[C@H](C(=O)N2C[C@H](O)C[C@H]2C(=O)NCc2ccc(-c3scnc3C)cc2)C(C)(C)C)CC1 [CZ47-25, (2S,4R)-1-((S)-2-(7-(4-(4-((5-Chloro-4-((2-(isopropylsulfonyl)phenyl)amino)pyrimidin-2-yl)amino)-5-isopropoxy-2-methylphenyl)piperidin-1-yl)-7-oxoheptanamido)-3,3-dimethylbutanoyl)-4-hydroxy-N-(4-(4-methylthiazol-5-yl)benzyl)pyrrolidine-2-carboxamide] |  | > 80
Cc1cc(Nc2ncc(Cl)c(Nc3ccccc3S(=O)(=O)C(C)C)n2)c(OC(C)C)cc1C1CCN(C(=O)CCOCCOCCC(=O)N[C@H](C(=O)N2C[C@H](O)C[C@H]2C(=O)NCc2ccc(-c3scnc3C)cc2)C(C)(C)C)CC1 [CZ47-16, (2S,4R)-1-((S)-2-(3-(2-(3-(4-(4-((5-Chloro-4-((2-(isopropylsulfonyl)phenyl)amino)pyrimidin-2-yl)amino)-5-isopropoxy-2-methylphenyl)piperidin-1-yl)-3-oxopropoxy)ethoxy)propanamido)-3,3-dimethylbutanoyl)-4-hydroxy-N-(4-(4-methylthiazol-5-yl)benzyl)pyrrolidine-2-carboxamide] |  | < 20
Cc1cc(Nc2ncc(Cl)c(Nc3ccccc3S(=O)(=O)C(C)C)n2)c(OC(C)C)cc1C1CCN(C(=O)CCOCCNc2cccc3c2C(=O)N(C2CCC(=O)NC2=O)C3=O)CC1 (centres unmarked) [CZ47-08, 4-((2-(3-(4-(4-((5-Chloro-4-((2-(isopropylsulfonyl)phenyl)amino)pyrimidin-2-yl)amino)-5-isopropoxy-2-methylphenyl)piperidin-1-yl)-3-oxopropoxy)ethyl)amino)-2-(2,6-dioxopiperidin-3-yl)isoindoline-1,3-dione] |  | > 80
Cc1cc(Nc2ncc(Cl)c(Nc3ccccc3S(=O)(=O)C(C)C)n2)c(OC(C)C)cc1C1CCN(C(=O)CCOCCOCCOCCNc2cccc3c2C(=O)N(C2CCC(=O)NC2=O)C3=O)CC1 (centres unmarked) [CZ47-10, 4-((2-(2-(2-(3-(4-(4-((5-Chloro-4-((2-(isopropylsulfonyl)phenyl)amino)pyrimidin-2-yl)amino)-5-isopropoxy-2-methylphenyl)piperidin-1-yl)-3-oxopropoxy)ethoxy)ethoxy)ethyl)amino)-2-(2,6-dioxopiperidin-3-yl)isoindoline-1,3-dione] |  | < 20
Cc1cc(Nc2ncc(Cl)c(Nc3ccccc3S(=O)(=O)C(C)C)n2)c(OC(C)C)cc1C1CCN(C(=O)CCCCCCCCC(=O)N[C@H](C(=O)N2C[C@H](O)C[C@H]2C(=O)NCc2ccc(-c3scnc3C)cc2)C(C)(C)C)CC1 [CZ47-28, (2S,4R)-1-((S)-2-(10-(4-(4-((5-Chloro-4-((2-(isopropylsulfonyl)phenyl)amino)pyrimidin-2-yl)amino)-5-isopropoxy-2-methylphenyl)piperidin-1-yl)-10-oxodecanamido)-3,3-dimethylbutanoyl)-4-hydroxy-N-(4-(4-methylthiazol-5-yl)benzyl)pyrrolidine-2-carboxamide] |  | < 20
Cc1cc(Nc2ncc(Cl)c(Nc3ccccc3S(=O)(=O)C(C)C)n2)c(OC(C)C)cc1C1CCN(C(=O)CCNc2cccc3c2C(=O)N(C2CCC(=O)NC2=O)C3=O)CC1 (centres unmarked) [CZ47-02, 4-((3-(4-(4-((5-Chloro-4-((2-(isopropylsulfonyl)phenyl)amino)pyrimidin-2-yl)amino)-5-isopropoxy-2-methylphenyl)piperidin-1-yl)-3-oxopropyl)amino)-2-(2,6-dioxopiperidin-3-yl)isoindoline-1,3-dione] |  | 20 to 80
